The target of one assay is T1, human M A1AT (Homo sapiens, UniProt P01009).
T1 construct: expressed in transfected cells; host or cells: HEK-M cells (HEK-EBNA with M A1AT plasmid)
Nature of the assay: A1AT cell secretion assay using HEK-M cells (ELISA). Conditions: 10 μM, 48 h. The class given is cell-based. As for the experimental part:
(§1) HEK-M cells, a human embryonic kidney cell line stably transfected with M A1AT, were plated into 96 well plates (3.0×10^5 cells/ml with 200 μl of media/well) overnight at 37° C. in a humidified atmosphere containing 5% CO2. Following incubation cells were washed with 200 μl serum-free media three times and media was replaced with serum-free media containing either vehicle, 10 μM suberanilohydroxamic acid (SAHA), (S)-1-((2-(trifluoromethyl)phenyl)sulfonyl)piperidine-3-carboxylic acid (at 10 μM) or (R)-1-((2-(trifluoromethyl)phenyl)sulfonyl)piperidine-3-carboxylic acid (at 10 μM) in replicates of six for 48 h in a 37° C. incubator in a final volume of 200 μl. At the end of the incubation step the supernatants were removed from the wells, centrifuged at 1000×g at 4° C. for 10 min and were assayed for human A1AT levels by ELISA (Human Serpin A1/α1 antitrypsin duo set ELISA, R& D Systems, DY1268) per manufacturer's instructions.
(§2) Briefly, a 96 well plate was coated with human A1AT capture antibody overnight at room temperature (1:180 dilution from stock, 100 μl final volume/well). The capture antibody was then removed and wells washed three times with 300 μl wash buffer (0.05% Tween in PBS) and then 200 μl reagent diluent (25% Tween 20 in PBS) was incubated in each well for 1 h at room temperature. Diluted samples, standards (125, 250, 500, 1000, 2000, 4000 and 8000 pg/ml A1AT) or blanks were then added to each well in duplicate and the plates were covered with a plate sealer and left at room temperature for 2 h. […] After which, 50 μl stop solution (2M H2SO4) was added and optical density (OD) of each well was read at 450 nm with 570 nm blank subtracted from each well using a microplate reader. A 4 parameter logistic curve was constructed using GraphPad Prism 7 and A1AT concentrations were determined in each sample by interpolation from a standard curve and multiplying by the appropriate dilution factor.
(§3) The amount of human A1AT secreted from transfected HEK-EBNA cells into the media was measured by ELISA. […]

The next assay deals with T2, human Siiyama A1AT (Homo sapiens, UniProt P01009, S77F).
T2 construct: expressed in transfected cells; host or cells: HEK-Siiyama cells (HEK-EBNA with Siiyama A1AT plasmid)
Kind of assay: A1AT cell secretion assay using HEK-Siiyama cells (ELISA). In kind it is cell-based. To be noted: 10 μM, 48 h. As for the experimental part: as §1, with “HEK-Siiyama” for “HEK-M”, “the Siiyama A1AT gene,” for “M A1AT,”, “containing” for “containing either”, “(at 1 or” for “(at”, “eight” for “six”, “A1/α1-antitrypsin” for “A1/α1 antitrypsin”
as §2, with “(0.05% Tween 20 in PBS)” for “(0.05% Tween in PBS)”
as §3

T2 sequence (P01009 25-418 S77F): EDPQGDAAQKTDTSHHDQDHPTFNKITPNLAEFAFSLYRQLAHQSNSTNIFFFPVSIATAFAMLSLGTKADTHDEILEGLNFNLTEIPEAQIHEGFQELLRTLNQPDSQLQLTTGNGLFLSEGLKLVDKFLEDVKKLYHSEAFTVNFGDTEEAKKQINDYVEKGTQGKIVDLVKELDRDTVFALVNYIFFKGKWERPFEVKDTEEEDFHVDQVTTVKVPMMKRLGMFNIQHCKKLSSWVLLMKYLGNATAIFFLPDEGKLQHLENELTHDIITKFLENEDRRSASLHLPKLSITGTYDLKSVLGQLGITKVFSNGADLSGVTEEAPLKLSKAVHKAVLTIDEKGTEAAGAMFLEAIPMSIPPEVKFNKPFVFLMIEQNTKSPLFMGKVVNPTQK
T1 sequence (P01009 25-418): as the sequence (P01009 25-418 S77F) above, with F53S counted along it

For the compound `O=C(CCCCCCC(=O)Nc1ccccc1)NO` [SAHA, suberanilohydroxamic acid, reference compound], at human M A1AT, the “secretion of human M A1AT into cell supernatant” value was “stimulates an increase in M A1AT secretion”. For the same compound, the “secretion of human Siiyama A1AT into cell supernatant (positive control)” value on human Siiyama A1AT is reported as “stimulates an increase in Siiyama A1AT secretion”.

Source of the values: patent US12673050B2, “Compositions and their use for the treatment of A1-antitrypsin deficiency” (Centessa Pharmaceuticals (UK) Limited, priority 2021, dated 2026).
